Patent US11311546B2, “Method for enhancing wound healing by administrating adenine” (Energenesis Biomedical Co., Ltd., priority 2017, dated 2022)

Legend:
[1] = test system: diabetic wound of db/db mice; assay: Diabetic wound healing, 0.02% adenine gel on splinted full thickness wound; type: in vivo; details: 0.02% adenine in a form of gel, once daily for 15 days
Description: The BKS. Cg-Dock7^m+/+Lepr^db/Jnarl (db/db) male mice at 8 weeks of age were purchased from the National Laboratory Animal Center (NLAC, R.O.C.). A total number of 10 mice with healthy and intact skin were used for the test for diabetic wound healing. The average±SEM body weight of the mice was 34.5±1.5 g. All mice had fasting blood glucose levels over 300 mg/dL.
The mice were housed individually in stainless steel cage, and were quarantined and acclimated for at least one week prior to test for diabetic wound healing. The temperature and relative humidity were in the range stipulated in the protocol at 21±2° C. and 55±10%, respectively. A 12-h/12-h light/dark cycle was maintained with light on at 7:00 AM and off at 7:00 PM.
The method for applying the composition containing 0.02% of adenine to the diabetic wound of mice was shown as follows. The mice described in Preparation example 4 were randomly divided into two groups of five animals each and then were anesthetized with isoflurane by use of an anesthesia system for rodents (Matrx™ VIP 3000 isoflurane vaporizer, Midmark). […]
(§1) Wounds of each mice were photographed everyday with standardized exposure and focal lengths using a digital camera (Lumix DMC-GF1, Panasonic), and wound areas were analyzed and calculated according to the analysis as described in Example 1.

AMPK = AMPK activation assay (western blot of regenerated skin tissue); type: in vivo; details: db/db mice, 12 days post wounding
Description: Effects of adenine on AMPK activation were evaluated based on the phosphorylation of AMPK and Acetyl-CoA carboxylase (ACC) protein upon adenine treatment. The process of animal experiment was the same as Example 2, except that after 12 days post wounding, skin tissues of db/db mice were homogenized and subject to western blot analysis. Equal amount of proteins from each sample was separated by SDS-PAGE and then electroblotted on to PVDF membranes. Membranes were blocked with 3% BSA in PBS for 60 mins and incubated with an anti-phospho-AMPK (Thr172) antibody (1:2000, Cell Signaling), an anti-AMPK antibody (1:2000, Cell Signaling), an anti-ACC antibody (1:1000, Cell Signaling) or an anti-phospho-ACC antibody (1:1000, Cell Signaling) at 4° C. overnight followed by the corresponding secondary antibody for 1 h at room temperature (RT). Immunoreactive bands were detected by enhanced chemiluminescence (ECL; Pierce, Rockford, Ill., USA) and recorded using Kodak film (Rochester, N.Y., USA). The detected signals were scanned and then quantified using ImageJ software.

ATP = ATP assay in regenerated skin tissue; type: in vivo; details: db/db mice; 12 days post wounding; ATP colorimetric assay
Description: The process of animal experiment was the same as Example 2, except that after 12 days post wounding, skin tissues of db/db mice were homogenized and centrifuged for 10 mins with 8,000 rpm at 4° C. Supernatant from tissue lysate was filled up in the column and spun down at 1,000×g for 2 minutes. 10 μL of eluate was analyzed using ATP colorimetric assay kit (Biovision).

[2] = test system: scald burn wound of C57BL/6 mice; assay: Scald burns healing; type: in vivo; details: 1 to 4,000 μM adenine in normal saline, once daily for 28 days
Description: The C57BL/6 mice approximately at 8 weeks of age were purchased from the National Laboratory Animal Center (NLAC, R.O.C.). The mice were deeply anesthetized by injecting intraperitoneally normal saline mixed with zoletil 50 and 2% rompun in a ratio of 2:1:1 (2 μl per gram of body weight). Each of the mice was shaved by depilatory cream. The shaved dorsal surface of each mice was sterilized with 70% ethanol and then the mice were placed in a restrainer with a 2×3 cm hole at the top. The dorsal surface of mice was exposed toward the hole of restrainer. The water at 60° C. was applied to the dorsal surface of mice for 40 seconds, followed by water at 4° C. for 45 seconds. The mice of Control group was only applied with water at 4° C. for 45 seconds. After scalding, each of the mice was then individually placed in a cage, and fed with diazepam in the drinking water (50 mg/L) for the early 7 days. The mice were monitored every day for body weight of and wound infections. […]
as §1

[3] = test system: pressure ulcer wound of C57BL/6 mice; assay: Pressure ulcer healing; type: in vivo; details: 1 to 4,000 μM adenine in normal saline
Description: The C57BL/6 mice approximately at 8 weeks of age were purchased from the National Laboratory Animal Center (NLAC, R.O.C.). The mice were anesthetized with isoflurane using anesthesia system for rodents (Matrx™ VIP 3000 isoflurane vaporizer, Midmark). Before wounding, the dorsal surface was shaved and sterilely prepped with 70% ethanol for surgery. Dorsal skin was positioned between 2 circular magnets having 12-mm diameter for 12 hours and removed from them for 12 hours for 1 ischemia-reperfusion cycle. Pressure ulcer was created by 2 ischemia-reperfusion cycles. The force generated between the 2 magnets was 0.183N for a 5-mm skin bridge between the 2 magnets.
After 2 ischemia-reperfusion cycles, the compositions containing 1 μM to 4,000 μM adenine in normal saline or only normal saline as Control were individually applied on the pressure ulcer wound of mice once daily for 14 days.
as §1

3T3 cells = assay: Fibroblast (3T3) cell proliferation assay; type: cell-based, Human; details: 72 h; dose-dependent
Description: […] fibro blast cell line 3T3 were cultured in high-glucose Dulbecco's modified Eagle's medium (DMEM) containing 10% fetal bovine serum (FBS), 4 mM L-glutamine, 2 mM sodium pyruvate and 1% penicillin/streptomycin (Invitrogen GibeoBRL, Carlsbad, Calif., USA) at 37° C. under 5% CO2. For cell proliferation assay, 3T3 cells were plated at 1×10^5 per well (6-well plate). 24 h after plating, cells were treated with indicated concentration of adenine for 72 h and the number of viable cells was counted. Cells were detached using trypsin-EDTA solution and stained with trypan blue. The living cells were counted using hemocytometer. […] Data were presented as the mean±SEM of three independent experiments.

[4] = test system: full-thickness excisional skin wounds of C57BL/6J mice; assay: Excisional skin wound healing and scar formation; type: in vivo
Description: C57BL/6J mice were maintained at 22° C. under a 12-h light/dark cycle. The experiments were performed with 12-weeks old mice. After anesthetized by an intraperitoneal injection of ketamine ([…]) and xylazine (100 mg/kg), 6-mm full-thickness excisional skin wounds was made on the backs of mice using 6-mm skin biopsy punches. Immediately after wounding, 1 μM to 4000 μM of adenine in […] saline or saline alone was applied to the wound bed. The skin wounds were then covered by semipermeable transparent dressing and fixed to the skin. The mice were treated with adenine or vehicle for 14 days and then sacrificed. The scar formation was assessed by Masson's trichrome staining to observe the fibrosis process and the collagen framework of the healed wound (Fixed by 4% paraformaldehyde).

Compound: Nc1ncnc2nc[nH]c12 [Adenine, adenine]
- process of diabetic wound healing [1]: efficiently enhance the process of diabetic wound healing
- phosphorylation level of ACC in regenerated skin tissue (AMPK): efficiently enhance phosphorylation level
- phosphorylation level of AMPK in regenerated skin tissue (AMPK): efficiently enhance phosphorylation level
- ATP level in regenerated skin tissue (ATP): efficiently increase ATP level
- inflammatory response [2]: efficiently decrease inflammatory response
- process of healing of scald burns wound [2]: enhance the process of healing of scald burns wound
- process of healing of pressure ulcer wound ([3]; once daily for 14 days): efficiently enhance the process of healing of pressure ulcer wound
- extent of closure versus control mice ([3]; after 14 day of treatment, dose-dependent): significantly greater
- 3T3 cell proliferation (3T3 cells): significantly inhibited
- scar width compared to vehicle treated wounds ([4]; 14 days post-wounding, topical treatment, histological examination): significantly decreased
- extent of closure versus control mice ([4]; after 14 days of treatment, 1 μM to 4000 μM adenine in saline, dose-dependent): significantly greater
